{"source": "ChEMBL document CHEMBL1201862", "about": "“PubChem BioAssay data set” (2004)", "assay_in_all_cases": "DTP human tumour cell line panel, 48 h", "key": {"786-0": {"test_system": "786-0"}, "A498": {"test_system": "A498"}, "A549": {"test_system": "A549"}, "ACHN": {"test_system": "ACHN"}, "BT-549": {"test_system": "BT-549"}, "CAKI-1": {"test_system": "CAKI-1"}, "CCRF-CEM": {"test_system": "CCRF-CEM"}, "COLO 205": {"test_system": "COLO 205"}, "DU-145": {"test_system": "DU-145"}, "EKVX": {"test_system": "EKVX"}, "HCC 2998": {"test_system": "HCC 2998"}, "HCT-116": {"test_system": "HCT-116"}, "HCT-15": {"test_system": "HCT-15"}, "HL-60": {"test_system": "HL-60"}, "HOP-62": {"test_system": "HOP-62"}, "HOP-92": {"test_system": "HOP-92"}, "Hs-578T": {"test_system": "Hs-578T"}, "IGROV-1": {"test_system": "IGROV-1"}, "K562": {"test_system": "K562"}, "KM12": {"test_system": "KM12"}, "LOX IMVI": {"test_system": "LOX IMVI"}, "M14": {"test_system": "M14"}, "MCF7": {"test_system": "MCF7"}, "MDA-MB-231": {"test_system": "MDA-MB-231"}, "MDA-MB-435": {"test_system": "MDA-MB-435"}, "MDA-N": {"test_system": "MDA-N"}, "MOLT-4": {"test_system": "MOLT-4"}, "NCI-H226": {"test_system": "NCI-H226"}, "NCI-H23": {"test_system": "NCI-H23"}, "NCI-H460": {"test_system": "NCI-H460"}, "OVCAR-3": {"test_system": "OVCAR-3"}, "OVCAR-4": {"test_system": "OVCAR-4"}, "OVCAR-5": {"test_system": "OVCAR-5"}, "OVCAR-8": {"test_system": "OVCAR-8"}, "PC-3": {"test_system": "PC-3"}, "RPMI-8226": {"test_system": "RPMI-8226"}, "RXF 393": {"test_system": "RXF 393"}, "SF-268": {"test_system": "SF-268"}, "SF-295": {"test_system": "SF-295"}, "SF-539": {"test_system": "SF-539"}, "SK-MEL-28": {"test_system": "SK-MEL-28"}, "SK-MEL-2": {"test_system": "SK-MEL-2"}, "SK-MEL-5": {"test_system": "SK-MEL-5"}, "SK-OV-3": {"test_system": "SK-OV-3"}, "SN12C": {"test_system": "SN12C"}, "SNB-19": {"test_system": "SNB-19"}, "SNB-75": {"test_system": "SNB-75"}, "SR": {"test_system": "SR"}, "SW-620": {"test_system": "SW-620"}, "T47D": {"test_system": "T47D"}, "TK-10": {"test_system": "TK-10"}, "U-251": {"test_system": "U-251"}, "UACC-257": {"test_system": "UACC-257"}, "UACC-62": {"test_system": "UACC-62"}, "UO-31": {"test_system": "UO-31"}}, "note": "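Dose response: 5 concentrations. Exposure: 48 h. Format: 96-well plates. Endpoint: linear interpolation; highest concentration if not reached. GI50: concentration for 50% inhibition of growth.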 The source made the active and inactive calls. No stated cut-off is given here; in the data, active = GI50 up to about 1.1 µM and inactive = higher."}
{"smiles": "O=C1c2ccccc2C2(c3ccc(Cl)cc3)N[C@@H]3CCCC[C@@H]3N12", "note": "(stereo not given in full)", "values": [{"measurement": "GI50", "setting": "786-0", "value": "> 100 µM (inactive)"}, {"measurement": "GI50", "setting": "A498", "value": "> 100 µM (inactive)"}, {"measurement": "GI50", "setting": "A549", "value": "> 100 µM (inactive)"}, {"measurement": "GI50", "setting": "ACHN", "value": "> 100 µM (inactive)"}, {"measurement": "GI50", "setting": "BT-549", "value": "> 100 µM (inactive)"}, {"measurement": "GI50", "setting": "CAKI-1", "value": "> 100 µM (inactive)"}, {"measurement": "GI50", "setting": "CCRF-CEM", "value": "> 100 µM (inactive)"}, {"measurement": "GI50", "setting": "COLO 205", "value": "> 100 µM (inactive)"}, {"measurement": "GI50", "setting": "DU-145", "value": "> 100 µM (inactive)"}, {"measurement": "GI50", "setting": "EKVX", "value": "> 100 µM (inactive)"}, {"measurement": "GI50", "setting": "HCC 2998", "value": "> 100 µM (inactive)"}, {"measurement": "GI50", "setting": "HCT-116", "value": "> 100 µM (inactive)"}, {"measurement": "GI50", "setting": "HCT-15", "value": "> 100", "unit": "µM"}, {"measurement": "GI50", "setting": "HL-60", "value": "50.1 µM (inactive)"}, {"measurement": "GI50", "setting": "HOP-62", "value": "> 100 µM (inactive)"}, {"measurement": "GI50", "setting": "HOP-92", "value": "> 100 µM (inactive)"}, {"measurement": "GI50", "setting": "Hs-578T", "value": "> 100 µM (inactive)"}, {"measurement": "GI50", "setting": "IGROV-1", "value": "> 100 µM (inactive)"}, {"measurement": "GI50", "setting": "K562", "value": "> 100 µM (inactive)"}, {"measurement": "GI50", "setting": "KM12", "value": "> 100 µM (inactive)"}, {"measurement": "GI50", "setting": "LOX IMVI", "value": "> 100 µM (inactive)"}, {"measurement": "GI50", "setting": "M14", "value": "> 100 µM (inactive)"}, {"measurement": "GI50", "setting": "MCF7", "value": "> 100 µM (inactive)"}, {"measurement": "GI50", "setting": "MDA-MB-231", "value": "> 100 µM (inactive)"}, {"measurement": "GI50", "setting": "MDA-MB-435", "value": "> 100 µM (inactive)"}, {"measurement": "GI50", "setting": "MDA-N", "value": "> 100 µM (inactive)"}, {"measurement": "GI50", "setting": "MOLT-4", "value": "> 100 µM (inactive)"}, {"measurement": "GI50", "setting": "NCI-H226", "value": "> 100 µM (inactive)"}, {"measurement": "GI50", "setting": "NCI-H23", "value": "> 100 µM (inactive)"}, {"measurement": "GI50", "setting": "NCI-H460", "value": "> 100 µM (inactive)"}, {"measurement": "GI50", "setting": "OVCAR-3", "value": "> 100 µM (inactive)"}, {"measurement": "GI50", "setting": "OVCAR-4", "value": "> 100 µM (inactive)"}, {"measurement": "GI50", "setting": "OVCAR-5", "value": "> 100 µM (inactive)"}, {"measurement": "GI50", "setting": "OVCAR-8", "value": "> 100 µM (inactive)"}, {"measurement": "GI50", "setting": "PC-3", "value": "> 100 µM (inactive)"}, {"measurement": "GI50", "setting": "RPMI-8226", "value": "> 100 µM (inactive)"}, {"measurement": "GI50", "setting": "RXF 393", "value": "> 100 µM (inactive)"}, {"measurement": "GI50", "setting": "SF-268", "value": "> 100 µM (inactive)"}, {"measurement": "GI50", "setting": "SF-295", "value": "> 100 µM (inactive)"}, {"measurement": "GI50", "setting": "SF-539", "value": "> 100 µM (inactive)"}, {"measurement": "GI50", "setting": "SK-MEL-28", "value": "> 100 µM (inactive)"}, {"measurement": "GI50", "setting": "SK-MEL-2", "value": "> 100 µM (inactive)"}, {"measurement": "GI50", "setting": "SK-MEL-5", "value": "> 100 µM (inactive)"}, {"measurement": "GI50", "setting": "SK-OV-3", "value": "> 100 µM (inactive)"}, {"measurement": "GI50", "setting": "SN12C", "value": "> 100 µM (inactive)"}, {"measurement": "GI50", "setting": "SNB-19", "value": "> 100 µM (inactive)"}, {"measurement": "GI50", "setting": "SNB-75", "value": "> 100 µM (inactive)"}, {"measurement": "GI50", "setting": "SR", "value": "> 100 µM (inactive)"}, {"measurement": "GI50", "setting": "SW-620", "value": "> 100 µM (inactive)"}, {"measurement": "GI50", "setting": "T47D", "value": "> 100 µM (inactive)"}, {"measurement": "GI50", "setting": "TK-10", "value": "> 100 µM (inactive)"}, {"measurement": "GI50", "setting": "U-251", "value": "> 100 µM (inactive)"}, {"measurement": "GI50", "setting": "UACC-257", "value": "> 100 µM (inactive)"}, {"measurement": "GI50", "setting": "UACC-62", "value": "> 100 µM (inactive)"}, {"measurement": "GI50", "setting": "UO-31", "value": "> 100 µM (inactive)"}]}
